# Test results taken from US7888363B2, “Viral polymerase inhibitors” (Boehringer Ingelheim International GmbH, priority 2003, dated 2011).
# Target: hepatitis C virus RNA dependant polymerase (NS5B) (Hepatitis C virus genotype 1b, UniProt P26663)
# Assay: Inhibition of NS5B RNA dependent RNA polymerase activity
# Assay type: biochemical
# Settings: Table 1; HCV NS5B polymerase
# Protocol: A suitable assay is described in the examples.
# Inhibition of NS5B RNA Dependent RNA Polymerase Activity
# The compounds of the invention were tested for inhibitory activity against the hepatitis C virus RNA dependant polymerase (NS5B), according to protocol described in WO 03/010141
# Chain of hepatitis C virus RNA dependant polymerase (NS5B) (P26663 2420-3010): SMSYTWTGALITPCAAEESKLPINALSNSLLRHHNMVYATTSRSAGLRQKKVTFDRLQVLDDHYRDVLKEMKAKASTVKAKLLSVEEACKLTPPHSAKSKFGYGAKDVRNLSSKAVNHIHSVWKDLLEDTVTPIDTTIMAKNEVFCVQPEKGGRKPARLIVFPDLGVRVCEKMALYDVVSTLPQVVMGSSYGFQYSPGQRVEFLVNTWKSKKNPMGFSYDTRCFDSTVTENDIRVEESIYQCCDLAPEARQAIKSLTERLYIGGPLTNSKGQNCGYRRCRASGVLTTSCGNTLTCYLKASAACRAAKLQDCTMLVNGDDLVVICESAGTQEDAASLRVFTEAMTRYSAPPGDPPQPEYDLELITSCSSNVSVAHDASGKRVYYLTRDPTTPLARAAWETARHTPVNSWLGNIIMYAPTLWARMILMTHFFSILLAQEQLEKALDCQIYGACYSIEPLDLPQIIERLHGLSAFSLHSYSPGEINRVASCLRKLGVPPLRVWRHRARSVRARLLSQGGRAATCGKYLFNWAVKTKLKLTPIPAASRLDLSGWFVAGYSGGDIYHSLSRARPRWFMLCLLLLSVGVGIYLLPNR
row,IC50 [nM],SMILES
1,200 to 1000,CC(C)(C)Nc1nc(-c2c(C3CCCCC3)c3ccc(C(=O)O)cc3n2CC(=O)N2CCOCC2)cs1 [Example 1041]
2,200 to 1000,CN(C)c1ccc(NC(=O)Cn2c(-c3ccoc3)c(C3CCCCC3)c3ccc(C(=O)O)cc32)cc1 [Example 1105]
3,200 to 1000,COCCN(CCOC)C(=O)Cn1c(-c2ccco2)c(C2CCCCC2)c2ccc(C(=O)O)cc21 [Example 1014]
4,200 to 1000,CN(C)C(=O)Cn1c(-c2ccccn2)c(C2CCCCC2)c2ccc(C(=O)O)cc21 [Example 1142]
5,< 200,CN(C)C(=O)Cn1c(-c2ccccc2)c(C2CCCCC2)c2ccc(C(=O)O)cc21 [Example 1025]
6,200 to 1000,CCN(CCN(C)C)C(=O)Cn1c(-c2ccoc2)c(C2CCCCC2)c2ccc(C(=O)O)cc21 [Example 1022]
7,< 200,CC(C)[C@@H](C(=O)O)N(C)C(=O)Cn1c(-c2ccoc2)c(C2CCCCC2)c2ccc(C(=O)O)cc21 [Example 1129]
8,200 to 1000,CC(C)CN(C)C(=O)Cn1c(-c2ccoc2)c(C2CCCCC2)c2ccc(C(=O)O)cc21 [Example 1006]
9,200 to 1000,O=C(O)c1ccc2c(C3CCCCC3)c(-c3ccoc3)n(CC(=O)N3CCN(c4ccccc4)CC3)c2c1 [Example 1095]
10,< 200,O=C(O)c1ccc2c(C3CCCCC3)c(-c3ccccc3)n(CC(=O)N3CCOCC3)c2c1 [Example 1023]
11,< 200,CC(C)N(C)C(=O)Cn1c(-c2ccoc2)c(C2CCCCC2)c2ccc(C(=O)O)cc21 [Example 1118]
12,200 to 1000,O=C(Cn1c(-c2ccoc2)c(C2CCCCC2)c2ccc(C(=O)O)cc21)NCc1ccco1 [Example 1056]

# Same assay, conditions: Table 2; HCV NS5B polymerase
row,IC50 [nM],SMILES
1,< 200,O=C(NS(=O)(=O)c1cccc(Cl)c1)c1ccc2c(C3CCCCC3)c(-c3ccoc3)n(CC(=O)N3CCOCC3)c2c1 [Example 2010]
2,< 200,Cc1nn(C)c(Cl)c1S(=O)(=O)NC(=O)c1ccc2c(C3CCCCC3)c(-c3ccoc3)n(CC(=O)N3CCOCC3)c2c1 [Example 2033]
3,< 200,O=C(NS(=O)(=O)c1c(Cl)nc2sccn12)c1ccc2c(C3CCCCC3)c(-c3ccoc3)n(CC(=O)N3CCOCC3)c2c1 [Example 2037]
4,< 200,COc1ccc(S(=O)(=O)NC(=O)c2ccc3c(C4CCCCC4)c(-c4ccoc4)n(CC(=O)N4CCOCC4)c3c2)cc1 [Example 2009]
5,< 200,Cc1cc(C)c(S(=O)(=O)NC(=O)c2ccc3c(C4CCCCC4)c(-c4ccoc4)n(CC(=O)N4CCOCC4)c3c2)c(C)c1 [Example 2044]
6,< 200,O=C(NS(=O)(=O)c1cccc2cccnc12)c1ccc2c(C3CCCCC3)c(-c3ccoc3)n(CC(=O)N3CCOCC3)c2c1 [Example 2024]
7,< 200,Cc1c(S(=O)(=O)NC(=O)c2ccc3c(C4CCCCC4)c(-c4ccoc4)n(CC(=O)N4CCOCC4)c3c2)cnn1-c1ccccc1 [Example 2042]
8,< 200,O=C(NS(=O)(=O)c1ccc(F)cc1)c1ccc2c(C3CCCCC3)c(-c3ccoc3)n(CC(=O)N3CCOCC3)c2c1 [Example 2015]
9,1000 to 10000,CN(C(=O)c1ccc2c(C3CCCCC3)c(-c3ccoc3)n(CC(=O)N3CCOCC3)c2c1)S(=O)(=O)c1ccccc1 [Example 2023]
10,< 200,Cc1ccc(S(=O)(=O)NC(=O)c2ccc3c(C4CCCCC4)c(-c4ccoc4)n(CC(=O)N4CCOCC4)c3c2)cc1 [Example 2022]

# Same assay, conditions: Table 3; HCV NS5B polymerase
row,IC50 [nM],SMILES
1,< 200,Nc1nc(-c2ccc(NC(=O)C3(NC(=O)c4ccc5c(C6CCCC6)c(-c6ccoc6)n(CC(=O)N6CCOCC6)c5c4)CCCNC3)cc2)cs1 (centres unmarked) [Example 3001]
2,< 200,CC(C)(NC(=O)Cn1c(-c2ccoc2)c(C2CCCCC2)c2ccc(C(=O)NC(C)(C)C(=O)Nc3ccc(/C=C/C(=O)O)cc3)cc21)C(=O)Nc1ccc(/C=C/C(=O)O)cc1 [Example 3005]
3,< 200,O=C(O)C=Cc1ccc(NC(=O)C2(NC(=O)c3ccc4c(C5CCCC5)c(-c5ccccn5)n(CC(=O)N5CCCCC5)c4c3)CCC2)cc1 [Example 3011]

# Same assay, conditions: Table 4; class ranges
row,SMILES,IC50 [nM]
1,O=C(NCc1ccc2c(c1)OCO2)c1ccc2c(C3CCCCC3)c(-c3ccoc3)n(CC(=O)N3CCOCC3)c2c1 [Example 4045],200 to 1000
2,CN(C)C(=O)Cn1c(-c2ccoc2)c(C2CCCCC2)c2ccc(C(=O)NCc3ccccc3)cc21 [Example 4054],200 to 1000
3,CN1CCN(C(=O)Cn2c(-c3ccoc3)c(C3CCCCC3)c3ccc(C(=O)NCc4ccco4)cc32)CC1 [Example 4011],200 to 1000
4,CN(C)C(=O)Cn1c(-c2ccoc2)c(C2CCCCC2)c2ccc(C(=O)NCCc3ccncc3)cc21 [Example 4057],200 to 1000
5,COCC(C)NC(=O)c1ccc2c(C3CCCCC3)c(-c3ccoc3)n(CC(=O)N3CCN(C)CC3)c2c1 (centres unmarked) [Example 4020],200 to 1000
6,CNC(=O)c1ccc2c(C3CCCCC3)c(-c3ccoc3)n(CC(=O)N(C)C)c2c1 [Example 4056],200 to 1000
7,CN1CCN(C(=O)Cn2c(-c3ccoc3)c(C3CCCCC3)c3ccc(C(=O)NCC(=O)c4ccccc4)cc32)CC1 [Example 4031],200 to 1000
8,C#CC1(NC(=O)c2ccc3c(C4CCCCC4)c(-c4ccoc4)n(CC(=O)N4CCOCC4)c3c2)CCCCC1 [Example 4071],200 to 1000
9,CN1CCC(NC(=O)c2ccc3c(C4CCCCC4)c(-c4ccoc4)n(CC(=O)N4CCOCC4)c3c2)(c2nc3ccc(C=CC(=O)O)cc3[nH]2)C1 (centres unmarked) [Example 4069],< 200
10,O=C(NCc1ccccc1)c1ccc2c(C3CCCCC3)c(-c3ccoc3)n(CC(=O)N3CCOCC3)c2c1 [Example 4047],200 to 1000
11,O=C(NCc1ccc(O)c(O)c1)c1ccc2c(C3CCCCC3)c(-c3ccoc3)n(CC(=O)N3CCOCC3)c2c1 [Example 4062],< 200
12,COC(=O)C1(NC(=O)c2ccc3c(C4CCCCC4)c(-c4ccoc4)n(CC(=O)N4CCOCC4)c3c2)CCCC1 [Example 4073],200 to 1000
13,CN(C)C(=O)Cn1c(-c2ccoc2)c(C2CCCCC2)c2ccc(C(=O)NCCc3ccccc3)cc21 [Example 4055],200 to 1000
14,CN1CCN(C(=O)Cn2c(-c3ccoc3)c(C3CCCCC3)c3ccc(C(=O)NC4CCCC4)cc32)CC1 [Example 4008],200 to 1000
15,Cc1c(C2(NC(=O)c3ccc4c(C5CCCCC5)c(-c5ccoc5)n(CC(=O)N5CCOCC5)c4c3)CCC2)oc2ccc(C(=O)O)cc12 [Example 4088],< 200
16,O=C(NCCc1ccncc1)c1ccc2c(C3CCCCC3)c(-c3ccoc3)n(CC(=O)N3CCOCC3)c2c1 [Example 4050],200 to 1000
17,CN1CCN(C(=O)Cn2c(-c3ccoc3)c(C3CCCCC3)c3ccc(C(=O)NCCc4ccccn4)cc32)CC1 [Example 4016],200 to 1000

# Second part, the compound after the results:
row,IC50 [nM],SMILES
1,200 to 1000,Cc1nc(C2(NC(=O)c3ccc4c(C5CCCCC5)c(-c5ccoc5)n(CC(=O)N5CCOCC5)c4c3)CCC2)cs1 [Example 4098]
2,< 200,Cc1nc(C2(NC(=O)c3ccc4c(C5CCCCC5)c(-c5ccoc5)n(CC(=O)N5CCC(N6CCCC6)CC5)c4c3)CCC2)cs1 [Example 4099]
3,< 200,CN(C)C(=O)C1(NC(=O)c2ccc3c(C4CCCCC4)c(-c4ccoc4)n(CC(=O)N4CCOCC4)c3c2)CCCC1 [Example 4097]
4,< 200,O=C(NS(=O)(=O)c1ccccc1)c1ccc2c(C3CCCCC3)c(-c3ccoc3)n(CC(=O)N3CCC(N4CCCC4)CC3)c2c1 [Example 4110]
5,< 200,CNC(=O)C1(NC(=O)c2ccc3c(C4CCCCC4)c(-c4ccoc4)n(CC(=O)N4CCC(N5CCCC5)CC4)c3c2)CCC1 [Example 4089]
6,< 200,CCc1nc(C2(NC(=O)c3ccc4c(C5CCCCC5)c(-c5ccoc5)n(CC(=O)N5CCC(N6CCCC6)CC5)c4c3)CCC2)cs1 [Example 4107]
7,200 to 1000,CC(C)Nc1nc(C2(NC(=O)c3ccc4c(C5CCCCC5)c(-c5ccoc5)n(CC(=O)N5CCC(N6CCCC6)CC5)c4c3)CCC2)cs1 [Example 4105]

# Same assay, conditions: Table 5; HCV NS5B polymerase
row,IC50 [nM],SMILES
1,200 to 1000,C=C(C)Cn1c(-c2ccoc2)c(C2CCCCC2)c2ccc(C(=O)O)cc21 [Example 5007]
2,200 to 1000,O=C(O)c1ccc2c(C3CCCCC3)c(-c3ccoc3)n(CC(=S)N3CCOCC3)c2c1 [Example 5001]
3,1000 to 10000,CC(C)=CCn1c(-c2ccoc2)c(C2CCCCC2)c2ccc(C(=O)O)cc21 [Example 5006]
4,200 to 1000,O=C(O)c1ccc2c(C3CCCCC3)c(-c3ccoc3)n(CCC(=O)N3CCOCC3)c2c1 [Example 5002]

# Same assay, conditions: Table 7; class ranges
row,IC50 [nM],SMILES
1,1000 to 10000,NC(=O)c1ccc2c(c1)c(C1CCCCC1)c(-c1ccoc1)n2CC(=O)N1CCC(N2CCCC2)CC1 [Example 7058]
2,1000 to 10000,O=C(NC1CCN(Cc2ccccc2)C1)c1ccc2c(c1)c(C1CCCCC1)c(-c1ccoc1)n2CC(=O)N1CCC(N2CCCC2)CC1 (centres unmarked) [Example 7040]
3,1000 to 10000,O=C(NC(Cc1ccccc1)c1ccccc1)c1ccc2c(c1)c(C1CCCCC1)c(-c1ccoc1)n2CC(=O)N1CCC(N2CCCC2)CC1 (centres unmarked) [Example 7025]
4,1000 to 10000,CN(C)C(=O)c1ccc2c(c1)c(C1CCCCC1)c(-c1ccoc1)n2CC(=O)N1CCC(N2CCCC2)CC1 [Example 7033]
5,1000 to 10000,O=C(NCc1c(F)cccc1Cl)c1ccc2c(c1)c(C1CCCCC1)c(-c1ccoc1)n2CC(=O)N1CCC(N2CCCC2)CC1 [Example 7036]
6,1000 to 10000,COC(=O)C(Cc1ccc(Cl)cc1)NC(=O)c1ccc2c(c1)c(C1CCCCC1)c(-c1ccoc1)n2CC(=O)N1CCC(N2CCCC2)CC1 (centres unmarked) [Example 7060]
7,1000 to 10000,CNC(=O)c1ccc2c(c1)c(C1CCCCC1)c(-c1ccoc1)n2CC(=O)N1CCC(N2CCCC2)CC1 [Example 7034]
8,1000 to 10000,O=C(O)COc1cc2c(C3CCCCC3)c(-c3ccoc3)n(CC(=O)N3CCOCC3)c2cc1C(=O)O [Example 7011]
9,1000 to 10000,O=C(NCc1cccnc1)c1ccc2c(c1)c(C1CCCCC1)c(-c1ccoc1)n2CC(=O)N1CCC(N2CCCC2)CC1 [Example 7021]
10,1000 to 10000,O=C(NCCN1CCNC1=O)c1ccc2c(c1)c(C1CCCCC1)c(-c1ccoc1)n2CC(=O)N1CCC(N2CCCC2)CC1 [Example 7044]
11,1000 to 10000,O=C(Nc1ccccc1)c1ccc2c(c1)c(C1CCCCC1)c(-c1ccoc1)n2CC(=O)N1CCC(N2CCCC2)CC1 [Example 7023]
12,1000 to 10000,O=C(NCC1CCCO1)c1ccc2c(c1)c(C1CCCCC1)c(-c1ccoc1)n2CC(=O)N1CCC(N2CCCC2)CC1 (centres unmarked) [Example 7016]
